Data reported in publication PMC3794980, “Identification of Conserved and HLA Promiscuous DENV3 T-Cell Epitopes” (PLoS Neglected Tropical Diseases, 2013).
Like-named read-outs stand apart in the source and are kept apart here. Where no end group is shown, it is not given here.

Target: T1, HLA-A*0201 (HLA-A2:Ig fusion protein) (Homo sapiens, UniProt P04439, D140Y/D185E/D98H/E176V/E277Q/G131W/G231S/I119V/I121R/I166T/I218V/L300P/L318F/N151K/N90K/P208A/P217A/Q86G/Q94H/R138H/R169H/T345S)
T1 construct: two extracellular portions of the major histocompatibility complex (MHC) class I HLA-A2 domains fused to the […] of a mouse IgG1 antibody; purchased BD Biosciences (HLA-A2:Ig); Fitzgerald Industries (β2-microglobulin)
Assay: Competitive binding assay using HLA-A2:Ig fusion protein (fluorescence polarization)
Procedure: The labeled peptide ([…]) was commercially synthesized by GenScript Corporation as a reference peptide for the binding assay. A fluorescein moiety was introduced into position P8 of the designed peptide ([…]). […] The lyophilized labeled peptide was diluted in 100% DMF (Dimethylformamide) to a final concentration of 10 mM. Subsequent dilutions were carried out using 0.5 mg/ml bovine-γ-globulin (BGG) in 1×PBS.
Soluble HLA-A2:Ig dimer complexes were obtained from BD Biosciences. This fusion protein consists of two extracellular portions of the major histocompatibility complex (MHC) class I HLA-A2 domains fused to the […] of a mouse IgG1 antibody. Additional β2-microglobulin (Fitzgerald Industries) was added to the binding assays to retain the fusion protein in a functional state. […] The competitive binding assays were carried out at room temperature for an incubation period of 3 days.
Both labeled and unlabeled peptides were added to the reaction mixture before the HLA-A2:Ig fusion protein, ensuring that both peptides were presented simultaneously to the HLA molecule. To avoid peptide photobleaching, the reaction mixture was incubated within aluminum foil covered microcentrifuge tubes. After the 3 days incubation period, 20 µl of the reaction mixture was loaded into individual wells of a black, non-binding surface (NBS) 384 well plate (Corning). Controls included only buffer (blank), protein and pFITC. Each experiment was performed in quadruplicate and reported as the mean with standard deviation.

[1] = predicted 9-mer tested, fluorescence polarization competition with fluorescein-labeled […], room temperature, 3 days, quadruplicate, read-out: Binding affinity

Molecule	IC50 [1] [nM]	other results
CC(C)C[C@H](NC(=O)[C@@H](N)CCCCN)C(=O)N[C@@H](CC(N)=O)C(=O)N[C@@H](CC(=O)O)C(=O)N[C@@H](Cc1c[nH]c2ccccc12)C(=O)N[C@@H](CC(=O)O)C(=O)N[C@@H](Cc1ccccc1)C(=O)N[C@H](C(=O)N[C@H](C(=O)O)C(C)C)C(C)C [NS3_399–407]	110	
GLFGKGSLV	2.9	
KLTDWDFVV [DENV4]		IC50: 61 nM
RTNDWDFVV [DENV2 (1)]		IC50 (read-out: IC50): 167 nM
